{
  "source": "patent US11311522B1",
  "about": "(Cavion, Inc., priority 2018, dated 2022)",
  "key": {"[1]": {"tested_on": "patients with essential tremor", "assay": "T-CALM: TETRAS activities of daily living subscale", "assay_type": "in vivo, human", "details": "for TETRAS-ADL Score, Median (minimum, maximum) / TETRAS-ADL Score, Mean (SD): post-hoc", "from_the_text": "The sum of the individual scores provides the overall score, ranging from 0 to 48. The complete TETRAS ADL Subscale is as follows.\nRate tremor's impact on activities of daily living (0-4 scoring). • 1. Speaking • 0=Normal • 1=Slight voice tremulousness, only when “nervous”. • 2=Mild voice tremor. All words easily understood. • 3=Moderate voice tremor. Some words difficult to understand. • 4=Severe voice tremor. Most words difficult to understand. • 2. Feeding with a spoon • 0=Normal • 1=Slightly abnormal. […] Spills a little. • 3=Moderately abnormal. Spills a lot or changes strategy to complete task such as using two hands or leaning over. • 4=Severely abnormal Cannot feed with a spoon. • 3. Drinking from a glass • 0=Normal. • 1=Slightly abnormal. […] Spills a little. • 3=Moderately abnormal. Spills a lot or changes strategy to complete task such as using two hands or leaning over. • 4=Severely abnormal. Cannot drink from a glass or uses straw or sippy cup. • 4. Hygiene • 0=Normal. • 1=Slightly abnormal. […] Some difficulty but can complete task. • 3=Moderately abnormal. Unable to do most fine tasks such as putting on lipstick or shaving unless changes strategy such as using two hands or using the less affected hand. • 4=Severely abnormal. Cannot complete hygiene activities independently. • 5. Dressing • 0=Normal. • 1=Slightly abnormal. […] Able to do everything but has difficulty due to tremor. • 3=Moderately abnormal. Unable to do most dressing unless uses strategy such as using Velcro, buttoning shirt before putting it on or avoiding shoes with laces. • 4=Severely abnormal. Cannot dress independently. • 6. Pouring • 0=Normal. • 1=Slightly abnormal. […] Must be very careful to avoid spilling but may spill occasionally. • 3=Moderately abnormal. Must use two hands or uses other strategies to avoid spilling. • 4=Severely abnormal. Cannot pour. • 7. Carrying food trays, plates or similar items • 0=Normal • 1=Slightly abnormal. […] Must be very careful to avoid spilling items on food tray. • 3=Moderately abnormal. Uses strategies such as holding tightly against body to carry. • 4=Severely abnormal. Cannot carry food trays or similar items. • 8. Using Keys • 0=Normal • 1=Slightly abnormal. Tremor is present but can insert key with one hand without difficulty. • 2=Mildly abnormal. Commonly misses target but still routinely puts key in lock with one hand. • 3=Moderately abnormal. Needs to use two hands or other strategies to put key in lock. • 4=Severely abnormal. Cannot put key in lock. • 9. Writing • 0=Normal • 1=Slightly abnormal. […] Difficulty writing due to the tremor • 3=Moderately abnormal. Cannot write without using strategies such as holding the writing hand with the other hand, holding pen differently or using large pen. • 4=Severely abnormal. Cannot write. • 10. Working. If patient is retired, ask as if they were still working. If the patient is a housewife, ask the question as it relates to housework: • 0=Normal. • 1=Slightly abnormal. […] Tremor interferes with work; able to do everything, but with errors. • 3=Moderately abnormal. Unable to continue working without using strategies such as changing jobs or using special equipment. • 4=Severely abnormal. Cannot perform any job or household work. • 11. Overall disability with the most affected task (Name task, e.g. using computer mouse, writing, etc) • Task • 0=Normal. • 1=Slightly abnormal. […] Tremor interferes with task but is still able to perform task. • 3=Moderately abnormal. Can do task but must use strategies. • 4=Severely abnormal. Cannot do the task. • 12.\nAnalyses of the TETRAS-ADL was conducted using the same type of ANCOVA model as described for the TETRAS-PS, using two-sided tests at the alpha=0.05 level of significance (FIG. 2 and Table 2)."}, "[2]": {"assay": "Respiratory function, whole body plethysmography", "details": "female, rat; for Cmax: plasma, po"}, "[3]": {"tested_on": "respiratory function", "assay": "Respiratory function, whole body plethysmography", "details": "female, rat, in vivo"}, "[4]": {"tested_on": "patients with essential tremor", "assay": "T-CALM substudy: iMotor digital spirography", "assay_type": "in vivo, human", "details": "dominant hand", "from_the_text": "The application requires the patient to complete a cycle of evaluations measuring motor function.\nFor the Archimedes spiral item of iMotor, subjects are asked to draw a spiral using a digital stylus on a tablet-based application. Prompts instruct the subject to trace a dotted grey mid-line that begins at the start of the spiral without lifting the stylus off the screen. The test is not timed. Subjects are asked to complete the task twice—one with the right and one with the left hand.\nFunctional tremor frequency (in Hz) is calculated by the iMotor algorithm based on the number and timing of stylus crosses of the mid-line. The mean change from baseline to Day 15 and Day 28 was calculated for the dominant hand. Statistical significance was calculated by Mann-Whitney non-parametric t-test (two tailed) (FIG. 5 and Table 5)."}, "[5]": {"assay": "Crossover bioavailability study: adverse events", "assay_type": "in vivo, human", "details": "Any Treatment (Original IR, MR1 or MR2), single 8 mg doses; subjects n (%), N = 15"}, "[6]": {"tested_on": "T1, guinea pig adenosine transporter", "T1 construct": "other: 10 μM", "assay": "Adenosine transporter inhibition", "assay_type": "biochemical", "details": "10 μM"}, "[7]": {"details": "Day 15, patients Minimally Improved by PGIC, N=17"}, "[8]": {"details": "Day 28, patients Minimally Improved by CGI-I, N=15"}, "[9]": {"details": "Day 28, patients Minimally Improved by PGIC, N=10"}},
  "note": "Where “and” joins values, the source holds several entries; their conditions need not be identical. Equal values may be shown once.",
  "data": [
    {"compound": "CC(C)c1ccc(CC(=O)N[C@H](C)c2ccc(OCC(F)(F)F)cn2)cc1", "note": "[CX-8998]", "values": [
      {"measurement": "Change from baseline in TETRAS-ADL, LS mean", "setting": "[1]; Day 15 (8 mg BID)", "value": "−4.5±0.87 and −4.5"},
      {"measurement": "TETRAS-ADL Score, Median (minimum, maximum)", "setting": "[1]; Day 15, patients Minimally Improved by CGI-I, N=19", "value": "−2.0"},
      {"measurement": "TETRAS-ADL Score, Mean (SD)", "setting": "[1]; Day 15, patients Minimally Improved by CGI-I, N=19, reduction from baseline", "value": "−3.7 (4.21)"},
      {"measurement": "TETRAS-ADL Score, Mean (SD)", "setting": "[1]; [7]", "value": "−3.3 (4.27)"},
      {"measurement": "TETRAS-ADL Score, Median (minimum, maximum)", "setting": "[1]; [7]", "value": "−4.0"},
      {"measurement": "Change from baseline in TETRAS-ADL, LS mean", "setting": "[1]; Day 28 (10 mg BID)", "value": "−4.5±1.12 and −4.5"},
      {"measurement": "TETRAS-ADL Score, Mean (SD)", "setting": "[1]; [8]", "value": "−4.4 (8.10)"},
      {"measurement": "TETRAS-ADL Score, Median (minimum, maximum)", "setting": "[1]; [8]", "value": "−1.0 (−24, 3)"},
      {"measurement": "TETRAS-ADL Score, Mean (SD)", "setting": "[1]; [9]", "value": "−1.6 (3.84)"},
      {"measurement": "TETRAS-ADL Score, Median (minimum, maximum)", "setting": "[1]; [9]", "value": "−1.0 (−7, 3)"},
      {"measurement": ">5 to 10 point worsening", "setting": "[1]; TETRAS-ADL, Day 15", "value": "0 n (%)"},
      {"measurement": ">10 point worsening", "setting": "[1]; TETRAS-ADL, Day 15", "value": "0 n (%)"},
      {"measurement": "0 change", "setting": "[1]; TETRAS-ADL, Day 28", "value": "5 (13.5%) n (%)"},
      {"measurement": ">0 to 1 point improvement", "setting": "[1]; TETRAS-ADL, Day 28", "value": "2 (5.4%) n (%)"},
      {"measurement": ">0 to 1 point worsening", "setting": "[1]; TETRAS-ADL, Day 28", "value": "3 (8.1%) n (%)"},
      {"measurement": ">1 to 2.5 point improvement", "setting": "[1]; TETRAS-ADL, Day 28", "value": "3 (8.1%) n (%)"},
      {"measurement": ">1 to 2.5 point worsening", "setting": "[1]; TETRAS-ADL, Day 28", "value": "3 (8.1%) n (%)"},
      {"measurement": ">2.5 to 5 point improvement", "setting": "[1]; TETRAS-ADL, Day 28", "value": "7 (18.9%) n (%)"},
      {"measurement": ">2.5 to 5 point worsening", "setting": "[1]; TETRAS-ADL, Day 28", "value": "3 (8.1%) n (%)"},
      {"measurement": ">5 to 10 point improvement", "setting": "[1]; TETRAS-ADL, Day 28", "value": "6 (16.2) n (%)"},
      {"measurement": ">5 to 10 point worsening", "setting": "[1]; TETRAS-ADL, Day 28", "value": "0 n (%)"},
      {"measurement": ">10 point improvement", "setting": "[1]; TETRAS-ADL, Day 28", "value": "5 (13.5%) n (%)"},
      {"measurement": ">10 point worsening", "setting": "[1]; TETRAS-ADL, Day 28", "value": "0 n (%)"},
      {"measurement": "NOAEL", "setting": "[2]; in vivo", "value": 30, "unit": "mg/kg"},
      {"measurement": "Cmax", "setting": "[2]; 300 mg/kg", "value": "~28", "unit": "µM"},
      {"measurement": "Cmax", "setting": "[2]; 2000 mg/kg", "value": "~34", "unit": "µM"},
      {"measurement": "NOEL for respiratory function", "setting": "[3]", "value": "< 30", "unit": "mg/kg"},
      {"measurement": "Change from baseline in functional tremor frequency by iMotor, mean", "setting": "[4]; Day 15 (8 mg BID)", "value": "−2.66", "unit": "Hz"},
      {"measurement": "Change from baseline in functional tremor frequency by iMotor, mean", "setting": "[4]; Day 28 (10 mg BID)", "value": "−2.41", "unit": "Hz"},
      {"measurement": "Adverse Event: Abnormal dreams", "setting": "[5]", "value": "3 (20%)"},
      {"measurement": "Adverse Event: Any", "setting": "[5]", "value": "11 (73%)"},
      {"measurement": "Adverse Event: Dizziness", "setting": "[5]", "value": "5 (33%)"},
      {"measurement": "Adverse Event: Euphoric mood", "setting": "[5]", "value": "2 (13%)"},
      {"measurement": "Adverse Event: Feeling abnormal", "setting": "[5]", "value": "4 (27%)"},
      {"measurement": "Adverse Event: Headache", "setting": "[5]", "value": "5(33%)"},
      {"measurement": "Adverse Event: Nervous System", "setting": "[5]", "value": "10 (67%)"},
      {"measurement": "Adverse Event: Paresthesias", "setting": "[5]", "value": "7 (47%)"},
      {"measurement": "Adverse Event: Psychiatric", "setting": "[5]", "value": "5 (33%)"}
    ]},
    {"compound": "C=C(C)c1ccc(CC(=O)N[C@H](C)c2ccc(OCC(F)(F)F)cn2)cc1", "note": "[M01]", "values": [
      {"measurement": "Inhibition", "setting": "[6]", "value": 79, "unit": "%"}
    ]}
  ]
}
